From ChEMBL document CHEMBL5715937, “In vitro activity of Bcr-Abl inhibitors AMN107 and BMS-354825 against clinically relevant imatinib-resistant Abl kinase domain mutants” (Cancer Res, 2005)
Calls of active or inactive are those of the source. The calls are words filed in the database; no cut-off is given here.

Tests used:
[1] = Inhibition of BCR-ABL M351T mutant (unknown origin) expressed in mouse BaF3 cells assessed as inhibition of cell growth incubated for 72 hrs by […] CellTiter96 viability analysis
[2] = test system: BaF3; test: Induction of apoptosis in mouse BaF3 cells expressing Bcr-Abl Y253H mutant assessed as increase in apoptotic cells at 1500 nM incubated for 72 hrs by Annexin V-phycoerythrin and 7-amino-actinomycin D staining based PCA instrument analysis relative to control; type: functional
[3] = Inhibition of BCR-ABL Y253F mutant (unknown origin) expressed in mouse BaF3 cells assessed as inhibition of cell growth incubated for 72 hrs by […] CellTiter96 viability analysis
[4] = test system: BaF3; test: Induction of apoptosis in mouse BaF3 cells expressing Bcr-Abl H396R mutant at 30 to 300 nM incubated for 72 hrs by Annexin V-phycoerythrin and 7-amino-actinomycin D staining based PCA instrument analysis; type: functional, cell-based; settings: dose 30-300 nM
[5] = Inhibition of BCR-ABL V379l mutant (unknown origin) expressed in mouse BaF3 cells assessed as inhibition of cell growth incubated for 72 hrs by […] CellTiter96 viability analysis
[6] = cells; settings: Mus musculus, BaF3, 3 h
[7] = test system: BaF3; test: Induction of apoptosis in mouse BaF3 cells expressing Bcr-Abl E255K mutant assessed as increase in apoptotic cells at 1500 nM incubated for 72 hrs by Annexin V-phycoerythrin and 7-amino-actinomycin D staining based PCA instrument analysis relative to control; type: functional
[8] = cells; settings: Mus musculus, BaF3, 72 h
[9] = cells; settings: Mus musculus, BaF3, 3 h; remark: listed apart in the source
[10] = cells; settings: Mus musculus, BaF3, 3 h; remark: listed apart in the source
[11] = cells; settings: Mus musculus, BaF3, 3 h; remark: listed apart in the source
[12] = Inhibition of BCR-ABL F317L mutant (unknown origin) expressed in mouse BaF3 cells assessed as inhibition of cell growth incubated for 72 hrs by […] CellTiter96 viability analysis
[13] = cells; settings: Mus musculus, BaF3, 3 h; remark: listed apart in the source
[14] = Inhibition of BCR-ABL Y253H mutant (unknown origin) expressed in mouse BaF3 cells assessed as inhibition of cell growth incubated for 72 hrs by […] CellTiter96 viability analysis
[15] = test system: BaF3; test: Induction of apoptosis in mouse BaF3 cells expressing Bcr-Abl F317L mutant at 30 to 300 nM incubated for 72 hrs by Annexin V-phycoerythrin and 7-amino-actinomycin D staining based PCA instrument analysis; type: functional, cell-based; settings: dose 30-300 nM
[16] = test system: BaF3; test: Induction of apoptosis in mouse BaF3 cells expressing Bcr-Abl G250E mutant assessed as increase in apoptotic cells at 1500 nM incubated for 72 hrs by Annexin V-phycoerythrin and 7-amino-actinomycin D staining based PCA instrument analysis relative to control; type: functional
[17] = Inhibition of BCR-ABL G250E mutant (unknown origin) expressed in mouse BaF3 cells assessed as inhibition of cell growth incubated for 72 hrs by […] CellTiter96 viability analysis
[18] = Cytotoxicity against mouse BaF3 cells assessed as reduction in cell proliferation incubated for 72 hrs by […] CellTiter96 viability analysis; type: toxicity
[19] = cells; settings: Mus musculus, BaF3, 3 h; remark: listed apart in the source
[20] = test system: BaF3; test: Induction of apoptosis in mouse BaF3 cells expressing Bcr-Abl Y253F mutant assessed as increase in apoptotic cells at 1500 nM incubated for 72 hrs by Annexin V-phycoerythrin and 7-amino-actinomycin D staining based PCA instrument analysis relative to control; type: functional
[21] = test system: BaF3; test: Induction of apoptosis in mouse BaF3 cells expressing Bcr-Abl F317L mutant assessed as increase in apoptotic cells at 1500 nM incubated for 72 hrs by Annexin V-phycoerythrin and 7-amino-actinomycin D staining based PCA instrument analysis relative to control; type: functional
[22] = test system: BaF3; test: Induction of apoptosis in mouse BaF3 cells expressing Bcr-Abl Y253H mutant at 30 to 300 nM incubated for 72 hrs by Annexin V-phycoerythrin and 7-amino-actinomycin D staining based PCA instrument analysis; type: functional, cell-based; settings: dose 30-300 nM
[23] = Inhibition of BCR-ABL L387M mutant (unknown origin) expressed in mouse BaF3 cells assessed as inhibition of tyrosine phosphorylation incubated for 3 hrs by immunoblotting analysis; type: cell-based; settings: BaF3, 3 h
[24] = Inhibition of BCR-ABL V379l mutant (unknown origin) expressed in mouse BaF3 cells assessed as inhibition of tyrosine phosphorylation incubated for 3 hrs by immunoblotting analysis; type: cell-based; settings: BaF3, 3 h
[25] = test system: BaF3; test: Induction of apoptosis in mouse BaF3 cells expressing Bcr-Abl F359V mutant at 30 to 300 nM incubated for 72 hrs by Annexin V-phycoerythrin and 7-amino-actinomycin D staining based PCA instrument analysis; type: functional, cell-based; settings: dose 30-300 nM
[26] = cells; settings: Mus musculus, BaF3, 3 h; remark: listed apart in the source
[27] = test system: BaF3; test: Induction of apoptosis in mouse BaF3 cells expressing Bcr-Abl Y253F mutant at 30 to 300 nM incubated for 72 hrs by Annexin V-phycoerythrin and 7-amino-actinomycin D staining based PCA instrument analysis; type: functional, cell-based; settings: dose 30-300 nM
[28] = test system: BaF3; test: Induction of apoptosis in mouse BaF3 cells expressing Bcr-Abl H396R mutant assessed as increase in apoptotic cells at 1500 nM incubated for 72 hrs by Annexin V-phycoerythrin and 7-amino-actinomycin D staining based PCA instrument analysis relative to control; type: functional
[29] = test system: BaF3; test: Induction of apoptosis in mouse BaF3 cells expressing Bcr-Abl L387M mutant at 30 to 300 nM incubated for 72 hrs by Annexin V-phycoerythrin and 7-amino-actinomycin D staining based PCA instrument analysis; type: functional, cell-based; settings: dose 30-300 nM
[30] = test system: BaF3; test: Induction of apoptosis in mouse BaF3 cells expressing Bcr-Abl E255K mutant at 30 to 300 nM incubated for 72 hrs by Annexin V-phycoerythrin and 7-amino-actinomycin D staining based PCA instrument analysis; type: functional, cell-based; settings: dose 30-300 nM
[31] = test system: BaF3; test: Induction of apoptosis in mouse BaF3 cells expressing Bcr-Abl F359V mutant assessed as increase in apoptotic cells at 1500 nM incubated for 72 hrs by Annexin V-phycoerythrin and 7-amino-actinomycin D staining based PCA instrument analysis relative to control; type: functional
[32] = test system: BaF3; test: Induction of apoptosis in mouse BaF3 cells expressing Bcr-Abl M244V mutant at 30 to 300 nM incubated for 72 hrs by Annexin V-phycoerythrin and 7-amino-actinomycin D staining based PCA instrument analysis; type: functional, cell-based; settings: dose 30-300 nM
[33] = cells; settings: Mus musculus, BaF3, 3 h; remark: listed apart in the source
[34] = test system: BaF3; test: Induction of apoptosis in mouse BaF3 cells expressing Bcr-Abl M351T mutant assessed as increase in apoptotic cells at 1500 nM incubated for 72 hrs by Annexin V-phycoerythrin and 7-amino-actinomycin D staining based PCA instrument analysis relative to control; type: functional
[35] = BaF3, time 72 hrs, condition chronic myelogenous leukemia

IC50 [6]: 55 nM
IC50 [8]: > 2000 nM
IC50 [9]: 70 nM
IC50 [10]: 8 nM
IC50 [11]: 250 nM
IC50 [13]: 22 nM
IC50 [19]: > 5000 nM
IC50 [23]: 33 nM
IC50 [24]: 15 nM
IC50 [26]: 7 nM
IC50 [33]: 155 nM
Compound: Cc1cn(-c2cc(NC(=O)c3ccc(C)c(Nc4nccc(-c5cccnc5)n4)c3)cc(C(F)(F)F)c2)cn1 [NILOTINIB]
IC50 ([1]; BaF3, 72 h): 15 nM
IC90 [1, 35]: 31 nM
Activity [2]: 65%
IC50 ([3]; BaF3, 72 h): 125 nM
IC90 [3, 35]: 215 nM
Activity [4]: Active
IC50 ([5]; BaF3, 72 h): 51 nM
IC90 [5, 35]: 115 nM
Activity [7]: >90%
IC50 ([12]; BaF3, 72 h): 50 nM
IC90 [12, 35]: 116 nM
IC50 ([14]; BaF3, 72 h): 450 nM
IC90 [14, 35]: 1020 nM
Activity [15]: Active
Activity [16]: >90%
IC50 ([17]; BaF3, 72 h): 48 nM
IC90 [17, 35]: 152 nM
IC50 at 72 h [18]: > 2000 nM
Activity [20]: >90%
Activity [21]: >90%
Activity [22]: Active
Activity [25]: Active
Activity [27]: Active
Activity [28]: >90%
Activity [29]: Active
Activity [30]: Active
Activity [31]: >90%
Activity [32]: Active
Activity [34]: >90%
